Consider 6 molecules from patent US6831190B1, “Guanidinomethyl cyclohexane carboxylic acid ester derivatives” (Teikoku Chemical Industries Co., Ltd., priority 1994, dated 2004).

Format in all cases: cell-based
Experiment [1] deals with Helicobacter pylori ATCC 43504. The experiment in a line: MIC, agar plating dilution (standard method of Japanese Chemotherapy Academy). Summed up: (§1)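 Agar dilution MIC followed the Japanese Chemotherapy Academy standard method, on Brain Heart Infusion agar with 0.1% cyclodextrin and compounds dissolved in DMSO. Plates were incubated microaerobically at 37 °C for three days.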

For experiment [2], the system named is Helicobacter pylori ATCC 43629. Described as above. In a few lines: as §1
The test system of experiment [3] is Escherichia coli NIH JC-2. The experiment in a line: MIC, standard method of Japanese Chemotherapy Academy. The note with it: Objected Strain 3: Escherichia coli NIH JC-2. As for the experimental part:
(§2) 1. Minimum Inhibitory Concentration (MIC) was measured in accordance with the standard method of Japanese Chemotherapy Academy (Chemotherapy, 29: 76-79, 1981).

The subject of experiment [4] is Helicobacter pylori No. 1. In words: MIC, agar plating dilution, clinical segregation strain. As for the experimental part:
(§3) Minimum Inhibitory Concentration (MIC) was measured in accordance with the standard method of Japanese Chemotherapy Academy (Chemotherapy, 29: 76-79, 1981). Sensitivity was measured with an agar plating dilution using Brain-Heart Infusion agar (Difco Co.) which was added 0.1% of cyclodextrin. […] of the solutions of the compounds which were obtained in examples of the present invention was prepared by dissolving in dimethylsulfoxide. […] Each of 1 ml of those prepared solutions was dispensed in share, after sterilization, 9 ml of sensitivity measuring medium which is kept at 50° C. was added to each, and they were sufficiently mixed. The mixture was used as a plate for measuring sensitivity. Brain Heart Infusion agar medium (Difco Co.), which was added 0.1% of cyclodextrin, was used as bacteria growing medium, and was cultured under microair at 37° C. for three days, and the number of bacteria thereof was adjusted to about 106/ml. This was used as a bacterial solution for inoculation. The medium was painted in each square about 2 cm with nichromic line loop. The medium was cultured under microair for three days at 37° C. […] The each result is shown at Table 4.

In experiment [5] the test system is Helicobacter pylori No. 2. The experiment is described as above. The protocol: as §3
Experiment [6] has as its system Helicobacter pylori No. 3. The experiment is described as above. The protocol: as §3
For experiment [7], the system named is Helicobacter pylori No. 4. Described as above. The protocol: as §3
The subject of experiment [8] is Bacillus subtilis ATCC 6633. In words: MIC, standard method of Japanese Chemotherapy Academy. Particulars: for MIC against bacillus subcillus ATCC 6633: standard method of Japanese Chemotherapy Academy; for MIC: Strain 13: Bacillus subtilis ATCC 6633. As for the experimental part: as §2
(§4) And MIC of the compounds of Example 3, 36, 8, 14, 17, 21, 41 and 45 were measured.

The test system of experiment [9] is Helicobacter pylori ATCC 43504. In words: MIC and MBC, liquid medium dilution. The note with it: Objected Strain 1: Helicobacter pylori ATCC 43504. As for the experimental part: (§5) 2. Minimum Inhibitory Concentration (MIC) and Minimum Bacteria sterilizeory Concentration (MBC) against helicobacter pylon were measured in accordance with the liquid medium dilution. […] And […] of helicobacter pylon bacterial solution, which was cultured at 37° C. for three days and then diluted and prepared with the above mentioned liquid medium, was added to the mixtures to adjust the volume to 105 CFU/ml. […] After they were cultured by the same method as above mentioned, minimum concentration of the compounds which were not recognized the growth with the naked eyes were measured as the values of MBC.

For experiment [10], the system named is Helicobacter pylori ATCC 43629. The experiment in a line: MIC and MBC, liquid medium dilution. The note with it: Objected Strain 2: Helicobacter pylori ATCC 43629. As for the experimental part:
as §5

Experiment [11] deals with Helicobacter pylori No. 1. The experiment in a line: MIC and MBC, liquid medium dilution. The note with it: Objected Strain 4: Helicobacter pylori No. 1. The protocol: as §5
The test system of experiment [12] is Helicobacter pylori No. 2. In words: MIC and MBC, liquid medium dilution. The note with it: Objected Strain 5: Helicobacter pylori No. 2. The protocol: as §5
In experiment [13] the test system is Helicobacter pylori No. 3. The experiment in a line: MIC and MBC, liquid medium dilution. The note with it: Objected Strain 6: Helicobacter pylori No. 3. The protocol: as §5
For experiment [14], the system named is Helicobacter pylori No. 4. In words: MIC and MBC, liquid medium dilution. Particulars: Objected Strain 7: Helicobacter pylori No. 4. As for the experimental part: as §5
Experiment [15] has as its system Helicobacter pylori No. 19. In words: MIC, agar plating dilution, clinical segregation strain. As for the experimental part: as §3
Experiment [16] concerns Helicobacter pylori No. 20. Described as above. The protocol:
as §3

Experiment [17] relates to Helicobacter pylori No. 28. Described as above. As for the experimental part: as §3
In experiment [18] the test system is Staphylococcus aureus 209PJC. In words: MIC, standard method of Japanese Chemotherapy Academy. The note with it: Strain 11: Staphylococcus aureus 209PJC. The protocol: as §2, §4
For experiment [19], the system named is Staphylococcus aureus ATCC 6538. Described as above. Particulars: Strain 12: Staphylococcus aureus ATCC 6538. As for the experimental part:
as §2, §4

Experiment [20] deals with Staphylococcus aureus No. 2 (MRSA). The experiment is described as above. The note with it: Strain 14: Staphylococcus aureus No. 2 (MRSA). The protocol:
as §2, §4

Where [21] appears, read: Objected Strain 1: Helicobacter pylori ATCC 43504.
[22] abbreviates: Objected Strain 2: Helicobacter pylori ATCC 43629.
Where [23] appears, read: Strain 4: Helicobacter pylori No. 1.
Where [24] appears, read: Strain 5: Helicobacter pylori No. 2.
Setting [25] is: Strain 6: Helicobacter pylori No. 3.
Where [26] appears, read: Strain 7: Helicobacter pylori No. 4.
[27] abbreviates: Strain 8: Helicobacter pylori No. 19.
The mark [28] stands for this setting: Strain 9: Helicobacter pylori No. 20.
The mark [29] stands for this setting: Strain 10: Helicobacter pylori No. 28.

≈ marks a conversion by molar mass, not a printed value. Read-outs that look alike come from different tables or passages of the source.

For the molecule `Cl.N=C(N)NC[C@H]1CC[C@H](C(=O)Oc2ccc(-c3ccc(C(=O)OCc4ccc(F)cc4)cc3)cc2)CC1` [Example 16, trans-4-guanidinomethyl cyclohexane carboxylic acid [4-[4-(4-fluorobenzyloxycarbonyl)phenyl]phenylester].hydrochloride], the MIC in experiment [1] (setting [21]) was 0.78 µg/mL; in [2] (setting [22]) it was 0.78 µg/mL; in [3] it was >25 µg/mL; in experiment [4] (setting [23]), 0.20 µg/mL; in experiment [5] (setting [24]), 0.78 µg/mL; in experiment [6] (setting [25]) it was 0.20 µg/mL. For the same molecule, the minimal inhibitory concentration (MIC) was 0.39 µg/mL in experiment [7] (setting [26]); 0.20 µg/mL in experiment [9]; 0.39 µg/mL in [10]; 0.20 µg/mL in [11]; 0.78 µg/mL in experiment [12]; 0.05 µg/mL in experiment [13]. This molecule returned an MIC in experiment [14] of 0.10 µg/mL. In [8], the MIC against bacillus subcillus ATCC 6633 was > 25 µg/mL. The MBC in [9] was 0.39 µg/mL; in experiment [10] it was 1.56 µg/mL; in experiment [11], 0.78 µg/mL; in experiment [12], 3.13 µg/mL; in experiment [13], 0.10 µg/mL; in [14] it was 0.39 µg/mL.
With `CC1COc2c(N3CCN(C)CC3)c(F)cc3c(=O)c(C(=O)O)cn1c23` (centres unmarked) [Ophroxacine, ophroxacine, reference compound], the MIC amounted to 0.78 µg/mL (≈ 2.16 µM) in experiment [1] (setting [21]); 0.78 µg/mL (≈ 2.16 µM) in experiment [2] (setting [22]); 0.10 µg/mL (≈ 0.277 µM) in experiment [3]; 0.78 µg/mL (≈ 2.16 µM) in experiment [15] (setting [27]); 0.78 µg/mL (≈ 2.16 µM) in [4] (setting [23]); 0.78 µg/mL (≈ 2.16 µM) in experiment [16] (setting [28]). In addition, the MIC in experiment [17] (setting [29]) turned out to be 1.56 µg/mL (≈ 4.32 µM); in [5] (setting [24]), 12.5 µg/mL (≈ 34.6 µM); in [6] (setting [25]), 25.0 µg/mL (≈ 69.2 µM); in experiment [7] (setting [26]) it was 0.78 µg/mL (≈ 2.16 µM); in experiment [8], 0.10 µg/mL (≈ 0.277 µM); in [18] it was 0.39 µg/mL (≈ 1.08 µM). Besides, the MIC in [19] stood at 0.10 µg/mL (≈ 0.277 µM); in experiment [20], 12.5 µg/mL (≈ 34.6 µM).
Consider `Cl.N=C(N)NC[C@H]1CC[C@H](C(=O)Oc2ccc(-c3ccc(C(=O)OCCc4ccc(Cl)cc4)cc3)cc2)CC1` [Example 45, trans-4-guanidinomethyl cyclohexane carboxylic acid[4-[4-[2-(4-chlorophenyl)ethyloxycarbonyl)phenyl]phenylester].hydrochloride], for which the MIC was 0.39 µg/mL in experiment [1] (setting [21]); 0.39 µg/mL in experiment [2] (setting [22]); >25 µg/mL in experiment [3]; 0.20 µg/mL in experiment [15] (setting [27]); 0.39 µg/mL in experiment [4] (setting [23]); 0.20 µg/mL in [16] (setting [28]). Further, the MIC in [17] (setting [29]) is 0.39 µg/mL; in [5] (setting [24]), 0.39 µg/mL; in experiment [6] (setting [25]) it was 0.39 µg/mL; in experiment [7] (setting [26]), 3.13 µg/mL; in [8], >25 µg/mL; in experiment [18] it was >25 µg/mL. The MIC in experiment [19] and in experiment [20] was >25 µg/mL each time.
On to `Cl.N=C(N)NC[C@H]1CC[C@H](C(=O)Oc2ccc(-c3ccc(Cl)cc3)cc2)CC1` [Example 8, trans-4-guanidinomethyl cyclohexane carboxylic acid [4-(4-chlorophenyl)phenylester].hydrochloride], for which the MIC in [1] (setting [21]) was 0.78 µg/mL; in experiment [2] (setting [22]) it was 0.39 µg/mL; in [3], >25 µg/mL; in experiment [15] (setting [27]), 0.20 µg/mL; in experiment [4] (setting [23]) it was 0.10 µg/mL; in [16] (setting [28]), 0.39 µg/mL. Besides, the MIC is 0.39 µg/mL in experiment [17] (setting [29]); 0.39 µg/mL in [5] (setting [24]); 0.10 µg/mL in [6] (setting [25]); 0.39 µg/mL in [7] (setting [26]); 6.25 µg/mL in experiment [8]; 0.78 µg/mL in experiment [18]. The MIC in experiment [19] and in experiment [20] was 1.56 µg/mL each time.
Turning to `CC1(C)S[C@@H]2[C@H](NC(=O)[C@H](N)c3ccc(O)cc3)C(=O)N2[C@H]1C(=O)O` [Amoxicillin, amoxicillin, reference compound], the minimum inhibitory concentration (MIC) amounted to 0.05 µg/mL (≈ 0.137 µM) in [1] (ATCC43504, Objected Strain 1: Helicobacter pylori ATCC 43504, read-out: MIC); 0.025 µg/mL (≈ 0.0684 µM) in [2] (ATCC43629, Objected Strain 2: Helicobacter pylori ATCC 43629, read-out: MIC); 0.025 µg/mL (≈ 0.0684 µM) in experiment [15] (Strain 8: Helicobacter pylori No. 19, read-out: MIC); 0.1 µg/mL (≈ 0.274 µM) in [4] (Strain 4: Helicobacter pylori No. 1, read-out: MIC); 0.025 µg/mL (≈ 0.0684 µM) in experiment [16] (Strain 9: Helicobacter pylori No. 20, read-out: MIC); 0.05 µg/mL (≈ 0.137 µM) in experiment [17] (Strain 10: Helicobacter pylori No. 28, read-out: MIC). Besides, the MIC in [5] (Strain 5: Helicobacter pylori No. 2, read-out: MIC) was determined as 0.1 µg/mL (≈ 0.274 µM); in experiment [6] (Strain 6: Helicobacter pylori No. 3, read-out: MIC), 0.025 µg/mL (≈ 0.0684 µM); in experiment [7] (Strain 7: Helicobacter pylori No. 4, read-out: MIC), 0.05 µg/mL (≈ 0.137 µM); in experiment [8] (ATCC6633, read-out: MIC), 0.05 µg/mL (≈ 0.137 µM); in experiment [18] (read-out: MIC) it was 0.1 µg/mL (≈ 0.274 µM); in experiment [19] (ATCC6538, read-out: MIC), 0.05 µg/mL (≈ 0.137 µM). Moreover, the MIC in experiment [20] (read-out: MIC) turned out to be 0.2 µg/mL (≈ 0.547 µM).
Consider `Cl.N=C(N)NC[C@H]1CC[C@H](C(=O)Oc2ccc(-c3ccc(C(=O)OCc4ccc(Cl)cc4)cc3)cc2)CC1` [Example 15, trans4-guanidinomethyl cyclohexane carboxylic acid [4-[4-(4-chlorobenzyloxy carbonyl)phenyl]phenylester].hydrochloride], for which the MIC was 0.78 µg/mL in [1] (setting [21]); 0.39 µg/mL in experiment [2] (setting [22]); >25 µg/mL in [3]; 0.10 µg/mL in experiment [4] (setting [23]); 0.39 µg/mL in [5] (setting [24]); 0.10 µg/mL in experiment [6] (setting [25]). Besides, the MIC in experiment [7] (setting [26]) was determined as 0.20 µg/mL; in experiment [9], 0.20 µg/mL; in experiment [10], 0.39 µg/mL; in experiment [11], 0.20 µg/mL; in experiment [12] it was 0.39 µg/mL; in [13] it was 0.05 µg/mL. Also, the MIC in experiment [14] was 0.39 µg/mL. In addition, in experiment [8], the MIC against bacillus subcillus ATCC 6633 was > 25 µg/mL. The MBC in experiment [9] was 0.39 µg/mL; in [10], 1.56 µg/mL; in experiment [11], 0.78 µg/mL; in experiment [12], 1.56 µg/mL; in experiment [13], 0.10 µg/mL; in experiment [14], 0.39 µg/mL.

The term MIC denotes the least concentration at which growth counts as inhibited. For orientation: MBC means the smallest concentration meeting the test's criterion for killing. A higher MBC goes with weaker bactericidal potency.
